From article PMC5768637, “In Vitro and in Silico Evidence of Phosphatase Diversity in the Biomineralizing Bacterium Ramlibacter tataouinensis” (Frontiers in Microbiology, 2018)

Legend:
[1] = target: T1, Rta PhoD (Ramlibacter tataouinensis, UniProt F5XVP7); assay: p-nitrophenol release at […] nm, total soluble protein of expressing E. coli; type: biochemical; details: 50 mM Tris pH 8, 5 mM CaCl2, 5 mM MgCl2, 0.6 mM substrate
T1 construct: codon-optimised synthetic gene in pET-22b (MscI/BamHI), E. coli BL21(DE3); total soluble protein extract; precursor 530 aa, predicted Tat signal 31 aa; no precursor form seen on SDS-PAGE
T1 sequence (F5XVP7 32-530): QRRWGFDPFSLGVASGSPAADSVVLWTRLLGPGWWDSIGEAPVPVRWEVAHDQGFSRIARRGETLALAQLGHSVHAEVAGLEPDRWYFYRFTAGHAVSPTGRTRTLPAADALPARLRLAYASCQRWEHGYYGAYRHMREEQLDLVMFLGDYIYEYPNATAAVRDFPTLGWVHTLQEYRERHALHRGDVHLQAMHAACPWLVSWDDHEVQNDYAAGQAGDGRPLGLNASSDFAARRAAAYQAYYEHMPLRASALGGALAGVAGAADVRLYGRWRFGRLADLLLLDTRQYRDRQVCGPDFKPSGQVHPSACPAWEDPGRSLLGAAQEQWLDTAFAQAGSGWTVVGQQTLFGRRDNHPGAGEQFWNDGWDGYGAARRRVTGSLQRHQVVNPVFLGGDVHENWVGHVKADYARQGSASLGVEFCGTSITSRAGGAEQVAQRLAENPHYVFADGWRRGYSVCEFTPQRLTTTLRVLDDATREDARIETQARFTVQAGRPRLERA

[2] = target: T2, Rta PhoX1 (Ramlibacter tataouinensis, UniProt F5Y472); assay: as above; type: biochemical; details: 50 mM Tris pH 8, 5 mM CaCl2, 5 mM MgCl2, 0.6 mM substrate
T2 construct: gene Rta_14460; codon-optimised synthetic gene in pET-22b (MscI/BamHI), E. coli BL21(DE3); total soluble protein extract; precursor 643 aa, predicted Tat signal 51 aa; no precursor form seen on SDS-PAGE
T2 sequence (F5Y472 52-643): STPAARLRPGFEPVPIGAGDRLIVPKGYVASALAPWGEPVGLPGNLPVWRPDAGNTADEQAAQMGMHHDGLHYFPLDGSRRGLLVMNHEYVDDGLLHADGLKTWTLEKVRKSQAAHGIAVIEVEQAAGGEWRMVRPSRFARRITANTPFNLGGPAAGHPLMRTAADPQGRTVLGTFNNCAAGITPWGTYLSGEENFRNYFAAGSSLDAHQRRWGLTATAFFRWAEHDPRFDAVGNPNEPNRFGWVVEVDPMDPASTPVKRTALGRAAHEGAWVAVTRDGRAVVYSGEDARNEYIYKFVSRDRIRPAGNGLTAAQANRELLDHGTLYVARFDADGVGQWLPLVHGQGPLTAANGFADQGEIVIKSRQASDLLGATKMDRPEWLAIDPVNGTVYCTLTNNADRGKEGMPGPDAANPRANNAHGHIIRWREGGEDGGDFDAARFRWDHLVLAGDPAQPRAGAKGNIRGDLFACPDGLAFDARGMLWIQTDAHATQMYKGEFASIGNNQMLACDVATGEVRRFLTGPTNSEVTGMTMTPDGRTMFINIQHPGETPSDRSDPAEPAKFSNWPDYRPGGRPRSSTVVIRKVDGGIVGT

SMILES | p-nitrophenol release at 405 nm, total soluble protein of expressing E. coli [1] | p-nitrophenol release at 405 nm, total soluble protein of expressing E. coli [2]
O=[N+]([O-])c1ccc(OP(=O)(O)O)cc1 [pNPP, p-nitrophenylphosphate] | PhoD and PhoX1 hydrolyzed all the pNPP derivatives (pNPP, bis-pNPP, and TpNPP) | the activity of PhoX1 was higher for monoester
O=[N+]([O-])c1ccc(OP(=O)(O)Oc2ccc([N+](=O)[O-])cc2)cc1 [bis-pNPP, bis p-nitrophenylphosphate] | the activity of PhoD was higher for bis-pNPP diester | PhoD and PhoX1 hydrolyzed all the pNPP derivatives (pNPP, bis-pNPP, and TpNPP)
